The target in one series is Nav1.5 (Homo sapiens, UniProt Q14524). Put plainly: Ion channel screening. It counts as cell-based. To be noted: 10 µM, pulse 26.
The next series has as its target T1, Kv4.3/KChIP2 (Homo sapiens, UniProt Q9UK17).
T1 sequence (Q9UK17 1-655): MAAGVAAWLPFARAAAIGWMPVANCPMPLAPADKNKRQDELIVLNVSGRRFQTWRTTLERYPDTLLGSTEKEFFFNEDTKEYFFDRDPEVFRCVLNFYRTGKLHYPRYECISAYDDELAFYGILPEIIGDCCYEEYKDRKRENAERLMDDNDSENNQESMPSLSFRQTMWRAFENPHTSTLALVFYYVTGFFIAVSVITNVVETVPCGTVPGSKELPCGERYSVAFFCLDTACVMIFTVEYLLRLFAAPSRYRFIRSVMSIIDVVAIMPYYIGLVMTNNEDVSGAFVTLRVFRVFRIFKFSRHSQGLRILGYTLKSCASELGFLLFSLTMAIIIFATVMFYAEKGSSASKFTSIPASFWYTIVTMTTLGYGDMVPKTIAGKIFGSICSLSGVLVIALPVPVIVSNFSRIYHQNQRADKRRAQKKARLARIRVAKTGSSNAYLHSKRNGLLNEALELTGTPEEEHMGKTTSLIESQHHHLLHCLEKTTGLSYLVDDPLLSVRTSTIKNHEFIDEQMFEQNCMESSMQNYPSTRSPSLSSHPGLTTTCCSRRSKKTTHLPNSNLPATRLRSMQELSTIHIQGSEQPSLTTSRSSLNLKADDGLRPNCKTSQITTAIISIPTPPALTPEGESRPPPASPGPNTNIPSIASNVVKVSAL
T1 sequence (Q9NS61 1-270 partner): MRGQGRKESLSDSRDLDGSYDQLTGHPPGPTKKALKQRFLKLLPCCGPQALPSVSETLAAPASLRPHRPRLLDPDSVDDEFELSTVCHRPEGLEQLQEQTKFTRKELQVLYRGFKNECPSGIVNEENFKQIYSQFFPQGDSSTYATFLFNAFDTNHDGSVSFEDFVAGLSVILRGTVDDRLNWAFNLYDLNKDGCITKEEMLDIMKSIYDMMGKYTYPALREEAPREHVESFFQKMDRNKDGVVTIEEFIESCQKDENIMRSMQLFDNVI
Put plainly: Ion channel screening. In kind it is cell-based. To be noted: 10 µM.

Another series deals with KCNQ1/mink (Homo sapiens, UniProt P51787). Put plainly: Ion channel screening. The settings on record: 10 µM. It counts as cell-based.
KCNQ1/mink, sequence (P51787 whole entry): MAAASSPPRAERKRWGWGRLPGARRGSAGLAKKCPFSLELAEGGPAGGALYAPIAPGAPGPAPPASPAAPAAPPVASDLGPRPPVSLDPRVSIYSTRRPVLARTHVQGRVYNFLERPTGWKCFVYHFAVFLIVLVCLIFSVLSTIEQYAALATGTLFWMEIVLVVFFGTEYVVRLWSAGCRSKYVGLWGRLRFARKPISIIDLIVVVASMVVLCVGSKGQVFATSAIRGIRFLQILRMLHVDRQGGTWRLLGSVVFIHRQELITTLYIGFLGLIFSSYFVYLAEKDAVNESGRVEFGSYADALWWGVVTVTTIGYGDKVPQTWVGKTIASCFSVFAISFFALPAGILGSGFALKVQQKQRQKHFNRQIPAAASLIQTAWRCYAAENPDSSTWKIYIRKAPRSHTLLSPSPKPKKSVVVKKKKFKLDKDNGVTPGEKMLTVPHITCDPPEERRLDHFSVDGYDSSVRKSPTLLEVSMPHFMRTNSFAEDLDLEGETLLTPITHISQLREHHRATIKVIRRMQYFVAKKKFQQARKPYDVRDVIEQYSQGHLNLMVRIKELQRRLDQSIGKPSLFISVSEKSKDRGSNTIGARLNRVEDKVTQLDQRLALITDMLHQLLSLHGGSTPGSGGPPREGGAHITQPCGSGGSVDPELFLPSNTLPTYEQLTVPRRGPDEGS
For the next series, the system named is Caco-2 intestinal cells. Put plainly: Bidirectional Caco2 cell monolayer permeability. The settings on record: Caco-2. The protocol:
Caco-2 and HEK293 cells were obtained from the American Type Culture Collection (ATCC, Manassas, VA) and grown in culture according to the supplier’s specifications. In some experiments, HEK293 cells were stably transfected with hERG cDNA, and polyclonal cultures were maintained in the presence of 250 µg/ml geneticin (G418).
Bidirectional Caco2 cell monolayer permeability. Caco2 cells (2x10^4/well) were seeded onto apical chambers of a 24-multiwell insert plate and incubated at 37°C in 5% CO2. After 21 d, the transepithelial electrical resistance (TEER) in ohms was read for each insert well as a quality control for monolayer integrity (>900 ohms or 300 ohms cm^2). The cell monolayers were incubated with 400 µL transport buffer on the apical (A) and 1.2 mL on the basolateral (B) sides for 30 min. After preincubation, dosing solution was added to the apical (400 µL, A-to-B, donor) or basolateral sides (1.2 mL, B-to-A, donor) or receiving buffer to the apical (400 µL, B-to-A, receiver) or basolateral sides (1.2 mL, A-to-B, receiver) for 90 min at 37°C in 5% CO2. […] Papp’A>B (nm/s) was calculated with Equation 1.
Papp Efflux Ratio (ER) was calculated with Equation 2.
ER=Papp,B>APapp,A>BEquation 2: […]
Propranolol (high permeability marker, non-P-gp substate) and digoxin (P-gp substrate) were used as controls.
(Passage across Caco-2 layers is used to estimate intestinal permeability.)

The target in another series is T2, CYP2B6 (Homo sapiens, UniProt P20813).
T2 sequence (P20813 1-491): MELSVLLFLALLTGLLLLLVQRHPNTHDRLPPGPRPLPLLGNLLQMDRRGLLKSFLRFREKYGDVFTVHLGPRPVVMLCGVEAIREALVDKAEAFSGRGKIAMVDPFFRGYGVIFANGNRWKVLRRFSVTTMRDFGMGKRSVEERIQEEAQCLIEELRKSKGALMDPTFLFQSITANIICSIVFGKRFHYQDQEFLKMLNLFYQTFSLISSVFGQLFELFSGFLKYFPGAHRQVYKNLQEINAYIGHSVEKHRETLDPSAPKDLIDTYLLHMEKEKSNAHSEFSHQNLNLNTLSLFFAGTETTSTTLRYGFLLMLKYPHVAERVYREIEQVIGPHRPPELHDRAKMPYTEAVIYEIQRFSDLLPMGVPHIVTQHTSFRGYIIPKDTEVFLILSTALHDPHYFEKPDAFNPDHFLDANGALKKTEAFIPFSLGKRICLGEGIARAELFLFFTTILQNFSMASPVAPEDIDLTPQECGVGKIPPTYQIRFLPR
The settings on record: microsomes.

A further series deals with T3, CYP2C8 (Homo sapiens, UniProt P10632).
T3 sequence (P10632 1-490): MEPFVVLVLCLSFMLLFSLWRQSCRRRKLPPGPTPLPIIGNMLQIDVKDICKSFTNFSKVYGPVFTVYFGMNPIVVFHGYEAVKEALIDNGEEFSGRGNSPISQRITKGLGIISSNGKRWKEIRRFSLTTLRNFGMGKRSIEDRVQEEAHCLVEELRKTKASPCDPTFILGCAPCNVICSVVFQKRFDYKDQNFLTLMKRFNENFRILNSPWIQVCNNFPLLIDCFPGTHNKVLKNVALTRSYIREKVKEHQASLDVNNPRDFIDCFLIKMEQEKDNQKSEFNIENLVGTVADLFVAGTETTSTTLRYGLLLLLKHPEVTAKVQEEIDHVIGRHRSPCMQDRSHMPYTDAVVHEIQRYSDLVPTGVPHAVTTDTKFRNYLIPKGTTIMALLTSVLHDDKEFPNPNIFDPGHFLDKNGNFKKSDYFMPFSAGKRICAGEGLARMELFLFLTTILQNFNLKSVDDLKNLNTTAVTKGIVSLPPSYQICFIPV
To be noted: microsomes.

For a further series, the target named is hERG (Homo sapiens, UniProt Q12809).
hERG, sequence (Q12809 whole entry): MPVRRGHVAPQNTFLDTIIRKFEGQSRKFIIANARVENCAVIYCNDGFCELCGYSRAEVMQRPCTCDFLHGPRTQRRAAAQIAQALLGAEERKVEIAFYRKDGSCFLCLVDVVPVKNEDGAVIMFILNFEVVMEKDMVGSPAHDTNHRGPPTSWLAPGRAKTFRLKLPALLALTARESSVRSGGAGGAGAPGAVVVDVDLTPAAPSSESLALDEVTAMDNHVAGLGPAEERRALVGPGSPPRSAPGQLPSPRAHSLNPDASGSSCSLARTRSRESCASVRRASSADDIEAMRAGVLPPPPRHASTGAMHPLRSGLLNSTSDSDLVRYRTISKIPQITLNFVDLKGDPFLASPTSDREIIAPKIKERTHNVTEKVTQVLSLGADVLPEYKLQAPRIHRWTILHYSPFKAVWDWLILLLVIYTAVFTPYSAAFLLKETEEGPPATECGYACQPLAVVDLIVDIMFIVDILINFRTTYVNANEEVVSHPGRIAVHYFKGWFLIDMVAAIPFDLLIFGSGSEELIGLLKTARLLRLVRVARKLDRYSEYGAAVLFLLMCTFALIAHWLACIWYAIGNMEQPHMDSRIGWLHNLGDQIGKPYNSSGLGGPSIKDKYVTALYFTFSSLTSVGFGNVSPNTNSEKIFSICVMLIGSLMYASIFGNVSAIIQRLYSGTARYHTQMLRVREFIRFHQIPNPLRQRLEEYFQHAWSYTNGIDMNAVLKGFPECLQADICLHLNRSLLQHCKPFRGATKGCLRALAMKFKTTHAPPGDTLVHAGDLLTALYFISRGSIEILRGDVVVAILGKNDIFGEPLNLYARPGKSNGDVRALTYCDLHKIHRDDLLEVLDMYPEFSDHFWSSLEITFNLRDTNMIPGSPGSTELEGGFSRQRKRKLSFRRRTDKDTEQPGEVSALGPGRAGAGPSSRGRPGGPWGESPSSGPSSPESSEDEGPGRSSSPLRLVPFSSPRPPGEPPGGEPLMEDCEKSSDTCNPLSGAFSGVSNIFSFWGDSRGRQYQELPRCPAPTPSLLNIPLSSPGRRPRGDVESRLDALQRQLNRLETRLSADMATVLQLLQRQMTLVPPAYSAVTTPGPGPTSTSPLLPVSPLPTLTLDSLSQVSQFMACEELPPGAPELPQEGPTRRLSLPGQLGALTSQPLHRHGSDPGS
Series [1] is described as follows: Stability in human plasma.

Read-outs that look alike come from different tables or passages of the source.

These results are taken from PMC8820820, “Feasibility and safety of targeting mitochondria for cancer therapy – preclinical characterization of gamitrinib, a first-in-class, mitochondriaL-targeted small molecule Hsp90 inhibitor” (Cancer Biology & Therapy, 2022).

Nav1.5, sequence (Q14524 whole entry): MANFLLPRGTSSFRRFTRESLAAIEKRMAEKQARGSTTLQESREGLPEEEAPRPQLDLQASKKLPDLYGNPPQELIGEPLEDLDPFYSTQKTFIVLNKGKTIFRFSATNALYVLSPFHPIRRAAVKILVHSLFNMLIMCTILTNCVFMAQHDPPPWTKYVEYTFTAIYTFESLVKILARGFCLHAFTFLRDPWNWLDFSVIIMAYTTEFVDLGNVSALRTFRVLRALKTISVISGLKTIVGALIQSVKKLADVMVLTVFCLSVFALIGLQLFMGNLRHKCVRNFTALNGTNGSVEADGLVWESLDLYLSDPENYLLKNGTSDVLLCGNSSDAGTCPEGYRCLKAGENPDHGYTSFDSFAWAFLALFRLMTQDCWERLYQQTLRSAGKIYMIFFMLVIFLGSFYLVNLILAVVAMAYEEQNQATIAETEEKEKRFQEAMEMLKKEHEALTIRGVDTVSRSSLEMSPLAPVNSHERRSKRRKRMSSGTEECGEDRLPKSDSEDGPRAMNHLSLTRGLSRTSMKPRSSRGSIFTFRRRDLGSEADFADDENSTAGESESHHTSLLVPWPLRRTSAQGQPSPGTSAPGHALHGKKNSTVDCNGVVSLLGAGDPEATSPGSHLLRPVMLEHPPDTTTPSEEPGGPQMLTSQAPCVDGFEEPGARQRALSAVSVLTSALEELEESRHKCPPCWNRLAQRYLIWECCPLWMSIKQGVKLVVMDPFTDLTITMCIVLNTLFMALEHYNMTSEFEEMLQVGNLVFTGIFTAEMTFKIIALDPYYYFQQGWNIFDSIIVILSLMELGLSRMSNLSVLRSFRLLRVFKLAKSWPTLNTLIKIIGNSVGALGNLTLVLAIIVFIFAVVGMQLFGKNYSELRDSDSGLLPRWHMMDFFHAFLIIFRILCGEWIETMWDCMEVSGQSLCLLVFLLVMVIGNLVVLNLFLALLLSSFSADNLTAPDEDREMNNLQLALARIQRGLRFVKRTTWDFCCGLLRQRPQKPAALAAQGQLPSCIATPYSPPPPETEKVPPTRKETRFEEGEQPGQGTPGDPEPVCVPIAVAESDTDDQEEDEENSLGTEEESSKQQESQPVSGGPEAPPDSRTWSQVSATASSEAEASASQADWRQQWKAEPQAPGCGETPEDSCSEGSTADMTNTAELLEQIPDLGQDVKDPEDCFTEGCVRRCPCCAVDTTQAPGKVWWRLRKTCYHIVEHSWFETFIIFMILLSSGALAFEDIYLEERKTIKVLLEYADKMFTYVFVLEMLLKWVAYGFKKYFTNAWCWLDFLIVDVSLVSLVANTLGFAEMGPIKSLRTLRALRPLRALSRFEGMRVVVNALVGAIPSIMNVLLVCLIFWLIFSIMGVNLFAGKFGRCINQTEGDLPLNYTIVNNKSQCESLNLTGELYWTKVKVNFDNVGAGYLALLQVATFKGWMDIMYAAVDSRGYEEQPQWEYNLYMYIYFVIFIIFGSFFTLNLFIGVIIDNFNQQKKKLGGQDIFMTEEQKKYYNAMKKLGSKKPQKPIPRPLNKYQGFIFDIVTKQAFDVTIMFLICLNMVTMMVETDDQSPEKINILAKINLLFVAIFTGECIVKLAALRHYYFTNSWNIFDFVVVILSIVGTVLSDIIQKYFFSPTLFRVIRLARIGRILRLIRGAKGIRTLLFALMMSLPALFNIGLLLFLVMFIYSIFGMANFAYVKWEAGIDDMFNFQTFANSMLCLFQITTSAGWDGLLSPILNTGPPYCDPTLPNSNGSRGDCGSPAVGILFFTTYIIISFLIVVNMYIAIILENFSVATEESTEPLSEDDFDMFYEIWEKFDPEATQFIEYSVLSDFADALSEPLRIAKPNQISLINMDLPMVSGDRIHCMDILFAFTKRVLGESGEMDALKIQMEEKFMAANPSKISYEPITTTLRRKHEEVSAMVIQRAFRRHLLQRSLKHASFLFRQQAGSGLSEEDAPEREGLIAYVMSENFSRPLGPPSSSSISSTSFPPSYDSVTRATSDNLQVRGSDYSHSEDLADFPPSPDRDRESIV
Protocol for CYP2B6: (§1) CYP inhibition in liver microsomes. […] Samples were analyzed for metabolite formation by LC-MS/MS. The results were expressed using the peak area ratio of analyte to internal standard, based on the calibration curves.
(§2) Where Range=fitted uninhibited value, s=slope factor, x=inhibitor concentration, y=% control activity.
Protocol for CYP2C8: as §1, §2
Description for KCNQ1/mink: (§3) Ion channel screening. […] The parameters measured were the maximum inward current evoked on stepping to -20 mV from the 1st and 26th pulse. Human Kv4.3/KChIP2 currents were evoked from a holding potential of -80 mV by a series of four 500 msec pulses to 0 mV using a 1000 msec interval between pulses. The parameter measured was the amplitude of the outward current 50 msec after the onset of the 4th voltage step to 0 mV. […] Human Kv1.5 currents were evoked by a single pulse from a holding potential of -80 mV to a potential of 0 mV for 4 sec before returning to -80 mV. The parameters measured were the maximum amplitude of outward currents evoked at the beginning of the voltage pulse and at the end of the voltage step from -80 mV to 0 mV. Human KCNQ1/minK currents were evoked by a single pulse delivered from a holding potential of -80 mV to +60 mV for 4 sec before returning to -80 mV. The parameter measured was the maximum outward current evoked on stepping to +60 mV from the holding potential of -80 mV. hERG currents were evoked by a three-pulse protocol where voltage was first stepped to +40 mV for two sec from a holding potential of –80 mV to inactivate hERG channels. […] The parameter measured was the maximum inward current evoked upon stepping to -110 mV from the holding potential of -30 mV. […]
Description for Kv4.3/KChIP2: as §3
Description for Nav1.5: as §3
Protocol for hERG: Patch clamp recording. […] For electrophysiology recording, a micropipette was pulled from borosilicate glass with the pipette tip resistance between 3 ~ 5 MΩ. For each experiment, polyclonal HEK293 cells stably transfected with hERG cDNA and maintained in 250 µg/ml Geneticin (G418) were plated on 35 mm dishes on the microscope stage and a commercial patch clamp amplifier was used for the whole cell recordings. The tail currents were evoked at 22°C once every 30 sec by a 3 sec-50 mV repolarizing pulse following a 2 sec +50 mV depolarizing pulse with a hold voltage of -80 mV. A 50 msec depolarized pulse to -50 mV at the beginning of the voltage protocol served as a baseline for calculating the amplitude of the peak tail current. […] The cells were kept in the test solution until the peak tail current was stable (<5% change) for ~5 sweeps or for a maximum of 6 min, whichever came first. Peak tail amplitudes were plotted as a function of the sweep number. […] The % inhibition of the test article was calculated from the following equation:

A word on the IC50: it is the concentration that gives 50% inhibition. The low end stands for inhibition by little substance, the high end for a need for much substance. As for `COC1C=CC=C(C)C(=O)NC2=CC(=O)C(NCCCCCC[P+](c3ccccc3)(c3ccccc3)c3ccccc3)=C(CC(C)CC(OC)C(O)C(C)C=C(C)C1OC(N)=O)C2=O.F[P-](F)(F)(F)(F)F` (centres unmarked) [Gamitrinib], on Nav1.5, the “inhibition of Nav1.5 currents” value was 22.3 ± 5.3%. For the same compound, the “inhibition of Kv4.3/KChIP2 currents” value on Kv4.3/KChIP2 is 6.8 ± 2.2%. In addition, on KCNQ1/mink, the “inhibition of KCNQ1/mink currents” value was 22.5 ± 1.1%. Moreover, in the series with Caco-2 intestinal cells, the “Papp Efflux Ratio (ER)” value was determined as 5.77; the “Papp, A>B” value came to 1.90 nm/s; the “Papp, B>A” value came to 10.94 nm/s; the “Pexact Efflux Ratio” value worked out at 5.54. In addition, in the series on Caco-2 intestinal cells, the “Pexact,A>B” value worked out at 1.97 nm/s and the “Pexact,B>A” value was found to be 10.92 nm/s. Besides, the IC50 against CYP2B6 amounted to 16 µM. This compound registered a half-maximal inhibitory concentration (IC50) against CYP2C8 of 8 µM. The same compound came in with a half-maximal inhibitory concentration (IC50) against hERG of 3.5 µM. The “inhibition of hERG currents” value against hERG (0.5 µM) is recorded as −0.68 ± 3.95%. In addition, on hERG (5 µM), the “inhibition of hERG currents” value turned out to be 65.95 ± 6.78%. In addition, on hERG (ratio), the “hERG IC50 over IC50 of inhibition of tumor growth in NCI 60-cell line screen” value is listed as “up to 20 fold”. Moreover, in series [1], the average recovery was 82.8 ± 3% and the “stability in human plasma” value is recorded as 91.4%.
